Key:
[1] = system: rhabdomyolysis model mice; conditions: 400 mg/kg intraperitoneally; 24 hours after glycerol administration; vs normal saline control group; FIG. 1
[2] = system: uptake of each ligand into kidney tissues through megalin; conditions: cilastatin sodium 400 mg/kg intraperitoneally, urine collected 3 hours
Experimental: Cilastatin was administered to mice and changes in concentrations of each ligand in urine were observed.
Five mice (male, aged 12 weeks C57BL/6) were intraperitoneally administered with 400 mg/kg (diluted in 100 μL of normal saline, cilastatin-treated group) of cilastatin sodium (Sigma-Aldrich Japan K.K., C5743), and then put in a metabolic cage for 3 hours to collect urine, and the urines of 5 mice were combined. Additionally, 100 μL of normal saline was administered to another group of 5 mice (control group), and the same experiment as above was conducted.
Proteins were isolated from the obtained urine samples by electrophoresis (SDS-polyacrylamide gel), reductively alkylated (using dithiothreitol and iodoacetamide), digested with trypsin, and the obtained peptides were extracted to obtain a solid.
To the obtained solid, 15 μL of 0.3% formic acid (FA) was added, shaken for 5 minutes, sonicated for 1 minute, and shaken again for 5 minutes. The resultant mixture was spun down, applied to a membrane filter having a pore diameter of 0.45 μm (ULtra free-MC, HV, 0.45 μm, Millipore), centrifuged at 10,000 rpm for 5 minutes, and the sample passed through the filter was subjected to LCMS analysis.
AnaLyst® TF1.6 (AB SCIEX) was used as an LCMS/MS data acquisition and analysis software, and the obtained raw data were converted to a peak list file (mgf file format), whereby MS/MS Ion Search (MIS search) was conducted using Matrix Science Mascot daemon, Mascot server 2.2.1. The sequence data base used was Uniprot, Swiss-Prot. Significance threshold was set to 0.05 (false discovery rate of less than 5%), and the proteins having 2 or more peptides exceeding the identification standard were listed as identified proteins.
Raw data were acquired 2 times per sample at LCMS to cover the issue of analysis reproducibility at LCMS, and the peak list files obtained from the 2 runs were combined and analyzed using Mascot (Ohara et al., 2018, PLoS One, vol. 13, 1, e0204160).
To the proteins identified in common in 2 groups when compared, the spectral count method was used, which is a label-free comparative, semiquantitative analysis method utilizing a principle that a large number of peptide fragments will be identified in those expressed at high levels, resulting in the increase in the number of MS/MS. In other words, the proteins identified in both of the cilastatin-treated group and control group were calculated for an SpC/L ratio (spectral abundance factor: SAF) of the cilastatin-treated group/control group, and the proteins having an SpC/L ratio of 2.0 or more were listed as the proteins abundant in urine of the cilastatin-treated group.

[3] = target: megalin (binding to myoglobin) (Rattus norvegicus, UniProt P98158); conditions: 1 mg of cilastatin injected into buffer (200 μL) in advance; FIG. 2-1
Sequence of megalin (binding to myoglobin) (P98158 26-4660): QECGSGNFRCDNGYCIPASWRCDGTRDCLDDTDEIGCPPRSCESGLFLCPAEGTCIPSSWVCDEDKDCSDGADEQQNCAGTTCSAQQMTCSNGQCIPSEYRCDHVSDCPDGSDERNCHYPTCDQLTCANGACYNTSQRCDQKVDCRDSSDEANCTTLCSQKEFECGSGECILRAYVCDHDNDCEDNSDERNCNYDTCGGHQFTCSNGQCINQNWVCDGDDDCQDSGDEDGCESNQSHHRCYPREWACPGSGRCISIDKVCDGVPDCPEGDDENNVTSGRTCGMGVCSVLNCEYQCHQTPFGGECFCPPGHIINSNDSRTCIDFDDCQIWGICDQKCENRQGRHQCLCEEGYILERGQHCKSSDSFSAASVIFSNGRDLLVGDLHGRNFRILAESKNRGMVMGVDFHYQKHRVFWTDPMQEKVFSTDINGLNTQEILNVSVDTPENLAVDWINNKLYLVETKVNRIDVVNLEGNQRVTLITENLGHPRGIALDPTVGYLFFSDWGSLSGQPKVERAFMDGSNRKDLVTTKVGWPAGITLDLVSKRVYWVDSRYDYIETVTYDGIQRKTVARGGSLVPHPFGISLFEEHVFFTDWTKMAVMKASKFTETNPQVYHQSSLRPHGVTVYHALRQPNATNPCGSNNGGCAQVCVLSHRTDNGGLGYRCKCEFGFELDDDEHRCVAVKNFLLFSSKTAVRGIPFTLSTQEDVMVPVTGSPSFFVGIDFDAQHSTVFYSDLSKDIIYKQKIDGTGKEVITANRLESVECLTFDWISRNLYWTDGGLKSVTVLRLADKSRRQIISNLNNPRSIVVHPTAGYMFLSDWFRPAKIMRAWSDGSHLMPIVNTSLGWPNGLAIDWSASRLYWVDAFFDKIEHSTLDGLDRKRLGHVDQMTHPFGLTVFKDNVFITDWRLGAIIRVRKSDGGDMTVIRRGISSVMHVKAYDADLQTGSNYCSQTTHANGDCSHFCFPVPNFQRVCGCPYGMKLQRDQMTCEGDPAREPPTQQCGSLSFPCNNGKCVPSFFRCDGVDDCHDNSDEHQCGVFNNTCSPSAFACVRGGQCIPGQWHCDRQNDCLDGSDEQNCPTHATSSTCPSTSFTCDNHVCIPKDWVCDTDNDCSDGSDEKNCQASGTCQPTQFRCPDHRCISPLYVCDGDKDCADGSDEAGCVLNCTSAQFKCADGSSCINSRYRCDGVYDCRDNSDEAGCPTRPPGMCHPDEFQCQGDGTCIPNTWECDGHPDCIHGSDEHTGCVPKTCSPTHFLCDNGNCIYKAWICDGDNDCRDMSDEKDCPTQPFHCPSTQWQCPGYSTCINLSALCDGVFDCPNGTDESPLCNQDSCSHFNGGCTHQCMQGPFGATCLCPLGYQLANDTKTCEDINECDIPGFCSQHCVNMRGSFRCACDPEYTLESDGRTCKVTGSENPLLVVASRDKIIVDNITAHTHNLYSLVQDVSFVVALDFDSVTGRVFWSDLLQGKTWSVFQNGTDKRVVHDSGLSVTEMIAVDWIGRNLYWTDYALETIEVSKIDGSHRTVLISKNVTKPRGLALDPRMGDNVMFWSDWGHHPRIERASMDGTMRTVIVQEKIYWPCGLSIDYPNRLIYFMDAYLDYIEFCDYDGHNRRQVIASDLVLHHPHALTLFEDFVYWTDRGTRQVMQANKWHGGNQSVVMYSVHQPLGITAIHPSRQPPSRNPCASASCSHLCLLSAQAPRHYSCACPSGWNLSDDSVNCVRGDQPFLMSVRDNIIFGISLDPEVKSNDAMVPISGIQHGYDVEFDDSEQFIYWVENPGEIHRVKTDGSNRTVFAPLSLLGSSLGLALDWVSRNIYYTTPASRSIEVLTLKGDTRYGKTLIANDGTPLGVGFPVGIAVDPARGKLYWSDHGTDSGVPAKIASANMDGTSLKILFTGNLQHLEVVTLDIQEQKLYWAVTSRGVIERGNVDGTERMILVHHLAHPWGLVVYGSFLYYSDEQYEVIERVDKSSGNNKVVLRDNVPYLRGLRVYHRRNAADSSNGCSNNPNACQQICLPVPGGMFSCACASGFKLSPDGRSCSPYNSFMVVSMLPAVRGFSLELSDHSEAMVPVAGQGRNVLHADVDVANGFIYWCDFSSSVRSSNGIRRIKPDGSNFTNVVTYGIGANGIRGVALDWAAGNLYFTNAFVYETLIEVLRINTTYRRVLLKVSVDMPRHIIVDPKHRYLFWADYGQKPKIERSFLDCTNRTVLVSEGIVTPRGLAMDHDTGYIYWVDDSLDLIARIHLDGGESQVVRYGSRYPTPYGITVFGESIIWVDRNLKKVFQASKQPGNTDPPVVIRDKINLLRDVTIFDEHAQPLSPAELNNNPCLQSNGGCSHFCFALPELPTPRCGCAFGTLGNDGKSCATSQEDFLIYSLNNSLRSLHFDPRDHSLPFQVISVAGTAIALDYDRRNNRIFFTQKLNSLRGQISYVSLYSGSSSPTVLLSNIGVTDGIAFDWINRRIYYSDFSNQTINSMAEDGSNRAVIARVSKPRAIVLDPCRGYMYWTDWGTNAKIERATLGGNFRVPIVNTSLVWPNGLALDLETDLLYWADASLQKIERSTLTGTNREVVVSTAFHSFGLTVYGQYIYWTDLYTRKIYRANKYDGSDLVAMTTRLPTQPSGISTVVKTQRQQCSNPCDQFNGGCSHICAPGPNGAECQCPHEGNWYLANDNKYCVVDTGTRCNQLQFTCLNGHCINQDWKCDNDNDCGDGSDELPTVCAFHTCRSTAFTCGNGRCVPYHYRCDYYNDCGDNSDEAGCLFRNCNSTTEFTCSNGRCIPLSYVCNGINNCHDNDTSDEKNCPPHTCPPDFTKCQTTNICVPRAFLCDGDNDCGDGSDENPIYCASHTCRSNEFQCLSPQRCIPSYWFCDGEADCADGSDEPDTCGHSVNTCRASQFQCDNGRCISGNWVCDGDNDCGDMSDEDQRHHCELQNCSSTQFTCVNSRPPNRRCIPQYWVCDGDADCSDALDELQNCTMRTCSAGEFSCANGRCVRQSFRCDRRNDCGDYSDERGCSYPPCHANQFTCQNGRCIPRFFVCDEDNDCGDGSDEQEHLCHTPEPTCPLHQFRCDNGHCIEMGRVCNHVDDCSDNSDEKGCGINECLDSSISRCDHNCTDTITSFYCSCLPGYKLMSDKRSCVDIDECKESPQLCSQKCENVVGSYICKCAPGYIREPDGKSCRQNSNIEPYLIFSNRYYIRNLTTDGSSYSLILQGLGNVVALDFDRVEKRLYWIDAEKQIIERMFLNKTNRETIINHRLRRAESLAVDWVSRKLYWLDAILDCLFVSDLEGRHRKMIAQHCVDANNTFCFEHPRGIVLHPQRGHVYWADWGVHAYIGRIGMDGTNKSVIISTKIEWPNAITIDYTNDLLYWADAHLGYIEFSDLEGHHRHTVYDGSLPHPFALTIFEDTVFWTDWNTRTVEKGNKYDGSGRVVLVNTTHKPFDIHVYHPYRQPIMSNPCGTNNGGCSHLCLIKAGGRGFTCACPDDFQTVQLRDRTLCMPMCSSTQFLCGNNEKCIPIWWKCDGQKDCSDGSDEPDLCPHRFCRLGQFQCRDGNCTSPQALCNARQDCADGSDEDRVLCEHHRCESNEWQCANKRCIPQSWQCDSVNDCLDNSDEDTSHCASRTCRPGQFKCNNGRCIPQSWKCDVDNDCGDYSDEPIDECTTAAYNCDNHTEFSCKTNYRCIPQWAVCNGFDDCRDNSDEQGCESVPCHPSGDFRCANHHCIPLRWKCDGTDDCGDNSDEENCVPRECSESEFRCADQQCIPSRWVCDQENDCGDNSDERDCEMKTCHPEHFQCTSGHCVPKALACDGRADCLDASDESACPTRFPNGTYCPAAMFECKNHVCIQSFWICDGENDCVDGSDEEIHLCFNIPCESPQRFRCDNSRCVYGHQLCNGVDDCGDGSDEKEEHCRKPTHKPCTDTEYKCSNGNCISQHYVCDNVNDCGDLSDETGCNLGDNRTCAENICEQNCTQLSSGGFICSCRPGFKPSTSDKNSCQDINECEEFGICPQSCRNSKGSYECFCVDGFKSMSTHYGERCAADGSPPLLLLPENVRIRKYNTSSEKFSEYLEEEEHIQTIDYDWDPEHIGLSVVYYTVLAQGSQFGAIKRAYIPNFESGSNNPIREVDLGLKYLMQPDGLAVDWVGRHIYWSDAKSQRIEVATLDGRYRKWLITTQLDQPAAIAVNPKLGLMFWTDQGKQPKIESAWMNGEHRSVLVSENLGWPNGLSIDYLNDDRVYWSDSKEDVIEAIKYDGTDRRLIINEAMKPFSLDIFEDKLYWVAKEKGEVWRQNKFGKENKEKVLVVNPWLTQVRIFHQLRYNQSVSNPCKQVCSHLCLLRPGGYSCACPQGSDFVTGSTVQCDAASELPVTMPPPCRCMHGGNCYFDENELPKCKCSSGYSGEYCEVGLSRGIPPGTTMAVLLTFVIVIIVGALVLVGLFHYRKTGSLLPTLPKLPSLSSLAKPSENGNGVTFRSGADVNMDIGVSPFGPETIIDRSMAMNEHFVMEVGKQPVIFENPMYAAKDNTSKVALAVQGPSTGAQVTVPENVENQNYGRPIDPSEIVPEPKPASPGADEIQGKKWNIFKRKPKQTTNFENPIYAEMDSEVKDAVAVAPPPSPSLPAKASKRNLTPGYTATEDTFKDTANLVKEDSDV
Source text: (§1) Binding specificity between megalin and each ligand (myoglobin, α1M, and Hx) and the possible binding inhibition by cilastatin were verified using the quartz crystal microbalance (QCM) method by reference to the method described in PTL 2.
(§2) For the ligands to be verified, myoglobin (LifeSpan Biosciences Inc., Rat […] Native Protein, LS-G11201) and Hx (Sino Biological Inc., Rat Hemopexin/HPX protein (His Tag 81025-R08H)) were used. […]
(§3) After each of the ligand- or BSA-immobilized quartz crystal sensor was mounted in the measurement instrument AFFINIX® Q8 (Initium Inc.) and the frequency was confirmed to be stable, 8 μL of a 0.1 mg/mL solution of megalin purified from Sprague-Dawley (SD) rat kidneys according to the method of Orlando et al. was injected and frequency was measured with time.
(§4) More specifically, the megalin solution was reacted with each of the ligand-immobilized quartz crystal sensors placed under the water surface with 200 μL of buffer, and the frequency was measured.
(§5) Additionally, 1 mg of cilastatin was injected into buffer in advance, each of the ligand-immobilized quartz crystal sensors was mounted in the measurement instrument, and after the frequency was confirmed to be stable, the megalin solution was injected and frequency was measured with time, whereby the antagonistic activity of cilastatin against the binding of each ligand to megalin was analyzed. […]

megalin (binding to Hx) = megalin (binding to Hx) (Rattus norvegicus, UniProt P98158); conditions: 1 mg of cilastatin injected into buffer (200 μL) in advance; FIG. 2-1
Sequence of megalin (binding to Hx) (P98158 26-4660): as above
Source text: as §1, §2, §3, §4, §5

[4] = system: myoglobin uptake into kidney tissues; conditions: rhabdomyolysis model mice; 24 hours after glycerol dosing; anti-myoglobin immunostaining; FIG. 5
Experimental: In line with Test Example 1, 50% glycerol was administered to C57BL/6 (male, aged 10-12 weeks), thereby constructing rhabdomyolysis model mice.
Twenty-four hours after glycerol dosing, a portion containing a kidney pedicle was sliced to 3 mm thickness from the right kidney and fixed with 4% paraformaldehyde phosphate buffer.

megalin (binding to α1M) = megalin (binding to α1M) (Rattus norvegicus, UniProt P98158); conditions: 1 mg/200 μL of cilastatin injected into buffer in advance; FIG. 2-2
Sequence of megalin (binding to α1M) (P98158 26-4660): as above
Source text: as §1

[5] = cilastatin-treated group/control group, pooled from 5 mice

drop of quartz crystal signals on adding megalin to myoglobin-immobilized sensor (megalin-myoglobin binding) [3]: inhibited
drop of quartz crystal signals on adding megalin to Hx-immobilized sensor (megalin-Hx binding) (megalin (binding to Hx)): inhibited
drop of quartz crystal signals on adding α1M to megalin-immobilized sensor (megalin-α1M binding) (megalin (binding to α1M)): inhibited
SMILES: CC1(C)C[C@@H]1C(=O)N/C(=C\CCCCSC[C@H](N)C(=O)O)C(=O)O [cilastatin, (Z)-7-[[(R)-2-Amino-2-carboxyethyl]thio]-2-[[[(S)-2,2-dimethylcyclopropyl]carbonyl]amino]-2-heptenoic acid]
serum potassium [1]: lower values than the control group
number of urinary proteins having an SpC/L ratio of the cilastatin-treated group/control group of 2.0 or more [2]: 63 kinds
SpC/L ratio, urinary Albumin [2, 5]: 1.10
SpC/L ratio, urinary Clusterin [2, 5]: 0.73
SpC/L ratio, urinary Transthyretin [2, 5]: 1.00
SpC/L ratio, urinary Vitamin D-binding protein [2, 5]: 0.80
amounts of myoglobin taken up into kidney tissues [4]: reduced

— US20230404958A1, “AGENT FOR […] DAMAGE INDUCED BY RHABDOMYOLYSIS” (Niigata University, priority 2021, published 2023)
